Measurements taken from US8114880B2, “Piperidine or piperazine substituted tetrahydro-naphthalene-1-carboxylic acid MTP inhibiting compounds” (Janssen Pharmaceutica N.V., priority 2006, dated 2012).

Legend:
[1] = test system: HepG2 cells; experiment: Quantification of the secretion of ApoB; type: cell-based; details: Homo sapiens, HepG2, 24 h, 24 hours of incubation, pIC50 = -log IC50
Experimental: HepG2 cells were cultured in 24-well plates in MEM Rega 3 containing 10% fetal calf serum. At 70% confluency, the medium was changed and the test compound or carrier (DMSO, 0.4% final concentration) was added. After 24 hours of incubation, the medium was transferred to Eppendorf tubes and cleared by centrifugation. A sheep antibody directed against either apoB was added to the supernatant and the mixture was kept at 8° C. for 24 hours. Then, rabbit anti-sheep antibody was added and the immune complex was allowed to precipitate for 24 hours at 8° C. The immunoprecipitate was pelleted by centrifugation for 25 minutes at 1320 g and washed twice with a buffer containing 40 mM Mops, 40 mM NaH2PO4, 100 mM NaF, 0.2 mM DTT, 5 mM EDTA, 5 mM EGTA, 1% Triton-X-100, 0.5% sodium deoxycholate (DOC), 0.1% SDS, 0.2 μM leupeptin and 0.2 μM PMSF. Radioactivity in the pellet was quantified by liquid scintillation counting. The IC50 values are usually converted to pIC50 values (=−log IC50 value) for ease of use.

[2] = biological target: MTP (Homo sapiens, UniProt P55157); experiment: MTP assay (triglyceride transfer from donor to acceptor vesicles); type: biochemical; details: MTP activity, percent triglyceride transfer from donor to acceptor vesicles, 37° C.
Method in brief: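 Radiolabelled triglyceride transfer from donor vesicles (phosphatidylcholine, 7.5 mol % cardiolipin, 0.25 mol % glycerol tri[1-^14C]-oleate) to phosphatidylcholine acceptor vesicles with BSA, pH 7.5 Tris buffer; compounds in DMSO (0.13% final), 5 min preincubation at 37° C before MTP addition. Donor vesicles removed on DEAE-52; acceptor-supernatant ^14C counts give percent transfer.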

Sequence of MTP (P55157 19-894, species assumed): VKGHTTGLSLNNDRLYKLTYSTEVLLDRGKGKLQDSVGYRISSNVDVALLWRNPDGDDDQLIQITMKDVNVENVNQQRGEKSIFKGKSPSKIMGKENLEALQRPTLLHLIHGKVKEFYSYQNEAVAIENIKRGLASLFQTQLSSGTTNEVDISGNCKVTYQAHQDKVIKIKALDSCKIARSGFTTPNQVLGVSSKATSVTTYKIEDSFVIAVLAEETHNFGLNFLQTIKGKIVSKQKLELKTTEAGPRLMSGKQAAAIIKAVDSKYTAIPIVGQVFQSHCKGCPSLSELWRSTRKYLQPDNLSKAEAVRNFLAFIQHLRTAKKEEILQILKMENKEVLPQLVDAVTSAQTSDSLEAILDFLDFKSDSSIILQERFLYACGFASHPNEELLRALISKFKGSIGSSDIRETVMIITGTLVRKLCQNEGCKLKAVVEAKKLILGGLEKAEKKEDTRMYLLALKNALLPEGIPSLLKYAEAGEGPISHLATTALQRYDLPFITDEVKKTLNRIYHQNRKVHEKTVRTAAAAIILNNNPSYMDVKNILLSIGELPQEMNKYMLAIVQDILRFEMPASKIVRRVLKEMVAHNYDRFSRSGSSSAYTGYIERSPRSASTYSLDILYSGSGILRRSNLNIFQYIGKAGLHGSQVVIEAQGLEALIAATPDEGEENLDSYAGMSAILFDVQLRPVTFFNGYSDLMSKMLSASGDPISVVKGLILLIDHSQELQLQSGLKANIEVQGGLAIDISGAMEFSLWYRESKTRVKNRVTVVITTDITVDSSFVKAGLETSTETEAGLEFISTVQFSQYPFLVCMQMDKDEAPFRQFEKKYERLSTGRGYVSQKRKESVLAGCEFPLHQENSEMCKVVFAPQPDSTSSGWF
Sequence of MTP (P07237 18-508 partner, species assumed): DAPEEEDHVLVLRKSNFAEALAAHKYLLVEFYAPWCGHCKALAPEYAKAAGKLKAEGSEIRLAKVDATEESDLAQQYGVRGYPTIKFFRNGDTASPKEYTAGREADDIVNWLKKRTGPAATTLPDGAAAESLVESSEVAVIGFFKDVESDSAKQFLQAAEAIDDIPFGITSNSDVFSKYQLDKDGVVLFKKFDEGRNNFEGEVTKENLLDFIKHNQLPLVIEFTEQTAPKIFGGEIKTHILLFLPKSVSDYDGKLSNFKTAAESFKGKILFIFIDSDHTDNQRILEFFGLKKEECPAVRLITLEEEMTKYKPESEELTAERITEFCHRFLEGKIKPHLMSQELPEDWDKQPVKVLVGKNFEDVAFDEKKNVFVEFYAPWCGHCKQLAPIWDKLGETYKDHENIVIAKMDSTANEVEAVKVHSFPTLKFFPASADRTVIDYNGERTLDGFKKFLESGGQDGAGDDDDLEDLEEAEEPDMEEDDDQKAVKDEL

Compound | IC50 [1] [nM] | IC50 [2] [nM]
COC(=O)CNC(=O)[C@@]1(c2ccccc2)CC[C@H](C(=O)N2CCC(NC(=O)c3ccccc3OC)CC2)c2ccccc21 [Co. No. 64] | 17.8 | 3.87
COC(=O)CCNC(=O)[C@@]1(c2ccccc2)CC[C@H](C(=O)N2CCC(NC(=O)c3ccccc3OC)CC2)c2ccccc21 [Co. No. 65] | 7.98 | 2.86
CCOC(=O)[C@H](C)NC(=O)[C@@]1(c2ccccc2)CC[C@H](C(=O)N2CCC(NC(=O)c3ccccc3OC)CC2)c2ccccc21 [Co. No. 66] | > 1000 | 20.2
CCOC(=O)[C@@H](C)NC(=O)[C@@]1(c2ccccc2)CC[C@H](C(=O)N2CCC(NC(=O)c3ccccc3OC)CC2)c2ccccc21 [Co. No. 67] | 873 | 20.2
CCOC(=O)[C@@H](NC(=O)[C@@]1(c2ccccc2)CC[C@H](C(=O)N2CCC(NC(=O)c3ccccc3OC)CC2)c2ccccc21)C(C)C [Co. No. 68] | > 1000 | 17.9
CCOC(=O)[C@H](NC(=O)[C@@]1(c2ccccc2)CC[C@H](C(=O)N2CCC(NC(=O)c3ccccc3OC)CC2)c2ccccc21)C(C)C [Co. No. 69] | 154 | 24.4
CCOC(=O)[C@H](CC(C)C)NC(=O)[C@@]1(c2ccccc2)CC[C@H](C(=O)N2CCC(NC(=O)c3ccccc3OC)CC2)c2ccccc21 [Co. No. 70] | > 1000 | 35.3
CCOC(=O)C[C@H](NC(=O)[C@@]1(c2ccccc2)CC[C@H](C(=O)N2CCC(NC(=O)c3ccccc3OC)CC2)c2ccccc21)C(=O)OCC [Co. No. 72] | > 1000 | 10.7
CCOC(=O)C[C@H](NC(=O)[C@@]1(c2ccccc2)CC[C@H](C(=O)N2CCC(NC(=O)c3ccccc3OC)CC2)c2ccccc21)C(=O)OC [Co. No. 73] | > 1000 | > 100
CCOC(=O)CC[C@H](NC(=O)[C@@]1(c2ccccc2)CC[C@H](C(=O)N2CCC(NC(=O)c3ccccc3OC)CC2)c2ccccc21)C(=O)OCC [Co. No. 74] | > 1000 | 5.08
COC(=O)[C@H](CCCCNC(=O)OC(C)(C)C)NC(=O)[C@@]1(c2ccccc2)CC[C@H](C(=O)N2CCC(NC(=O)c3ccccc3OC)CC2)c2ccccc21 [Co. No. 75] | 20.2 | 2.24
CCOC(=O)[C@H](NC(=O)[C@@]1(c2ccccc2)CC[C@H](C(=O)N2CCC(NC(=O)c3ccccc3OC)CC2)c2ccccc21)c1ccccc1 [Co. No. 79] | 128 | 33.3
CCOC(=O)[C@@H](NC(=O)[C@@]1(c2ccccc2)CC[C@H](C(=O)N2CCC(NC(=O)c3ccccc3OC)CC2)c2ccccc21)c1ccccc1 [Co. No. 80] | 548 | 70.1
CCOC(=O)[C@H](Cc1ccccc1)NC(=O)[C@@]1(c2ccccc2)CC[C@H](C(=O)N2CCC(NC(=O)c3ccccc3OC)CC2)c2ccccc21 [Co. No. 81] | > 1000 | 12.6
CCOC(=O)[C@@H](Cc1ccccc1)NC(=O)[C@@]1(c2ccccc2)CC[C@H](C(=O)N2CCC(NC(=O)c3ccccc3OC)CC2)c2ccccc21 [Co. No. 82] | 289 | 12.9
CCOC(=O)C1CCCCN1C(=O)[C@@]1(c2ccccc2)CC[C@H](C(=O)N2CCC(NC(=O)c3ccccc3OC)CC2)c2ccccc21 (some centres unmarked) [Co. No. 83] | 670 | 71.4
CCOC(=O)C1CCCN(C(=O)[C@@]2(c3ccccc3)CC[C@H](C(=O)N3CCC(NC(=O)c4ccccc4OC)CC3)c3ccccc32)C1 (some centres unmarked) [Co. No. 84] | > 1000 | 228
CCOC(=O)C(Cc1ccc(O)cc1)NC(=O)[C@@]1(c2ccccc2)CC[C@H](C(=O)N2CCC(NC(=O)c3ccccc3OC)CC2)c2ccccc21 (some centres unmarked) [Co. No. 85] | > 1000 | > 100
CCOC(=O)C(Cc1c[nH]c2ccccc12)NC(=O)[C@@]1(c2ccccc2)CC[C@H](C(=O)N2CCC(NC(=O)c3ccccc3OC)CC2)c2ccccc21 (some centres unmarked) [Co. No. 86] | 653 | 66.5
COc1ccccc1C(=O)NC1CCN(C(=O)[C@H]2CC[C@@](C(=O)NCCC(=O)OC(C)(C)C)(c3ccccc3)c3ccccc32)CC1 [Co. No. 88] | 20.6 | 2.15
COc1ccccc1C(=O)NC1CCN(C(=O)[C@H]2CC[C@@](C(=O)NCCC(=O)O)(c3ccccc3)c3ccccc32)CC1 [Co. No. 90] | > 1000 | 2130
COc1ccccc1C(=O)NC1CCN(C(=O)[C@H]2CC[C@@](C(=O)N[C@H](Cc3ccccc3)C(=O)OC(C)(C)C)(c3ccccc3)c3ccccc32)CC1 [Co. No. 96] | 512 | 38.2

Compound | IC50 [1] [nM] | IC50 [2] [nM]
COc1ccccc1C(=O)NC1CCN(C(=O)[C@H]2CC[C@@](C(=O)N[C@H](C(=O)OC(C)(C)C)C(C)C)(c3ccccc3)c3ccccc32)CC1 [Co. No. 102] | 168 | 13.6
COc1ccccc1C(=O)NC1CCN(C(=O)[C@H]2CC[C@@](C(=O)N[C@@H](C(=O)OC(C)(C)C)C(C)C)(c3ccccc3)c3ccccc32)CC1 [Co. No. 103] | 382 | 61
COc1ccccc1C(=O)NC1CCN(C(=O)[C@H]2CC[C@@](C(=O)N[C@@H](CC(C)C)C(=O)OC(C)(C)C)(c3ccccc3)c3ccccc32)CC1 [Co. No. 104] | 171 | 21.6
COc1ccccc1C(=O)NC1CCN(C(=O)[C@H]2CC[C@@](C(=O)N[C@@H](COC(C)(C)C)C(=O)OC(C)(C)C)(c3ccccc3)c3ccccc32)CC1 [Co. No. 105] | 271 | 48.8
COc1ccccc1C(=O)NC1CCN(C(=O)[C@H]2CC[C@@](C(=O)N[C@@H](CC(=O)OC(C)(C)C)C(=O)OC(C)(C)C)(c3ccccc3)c3ccccc32)CC1 [Co. No. 106] | 185 | 16.1
COc1ccccc1C(=O)NC1CCN(C(=O)[C@H]2CC[C@@](C(=O)N[C@@H](CCC(N)=O)C(=O)OC(C)(C)C)(c3ccccc3)c3ccccc32)CC1 [Co. No. 107] | > 1000 | > 100
COc1ccccc1C(=O)NC1CCN(C(=O)[C@H]2CC[C@@](C(=O)N[C@@H](CCC(=O)OC(C)(C)C)C(=O)OC(C)(C)C)(c3ccccc3)c3ccccc32)CC1 [Co. No. 108] | 74.8 | 9.18
COc1ccccc1C(=O)NC1CCN(C(=O)[C@H]2CC[C@@](C(=O)N[C@@H](CCCCNC(=O)OC(C)(C)C)C(=O)OC(C)(C)C)(c3ccccc3)c3ccccc32)CC1 [Co. No. 109] | 2.77 | 2.43
COc1ccccc1C(=O)NC1CCN(C(=O)[C@H]2CC[C@@](C(=O)N3CCC[C@H]3C(=O)OC(C)(C)C)(c3ccccc3)c3ccccc32)CC1 [Co. No. 110] | 245 | > 100
COc1ccccc1C(=O)NC1CCN(C(=O)[C@H]2CC[C@@](C(=O)N[C@@H](Cc3ccccc3)C(=O)OC(C)(C)C)(c3ccccc3)c3ccccc32)CC1 [Co. No. 112] | 136 | 18
COc1ccccc1C(=O)NC1CCN(C(=O)[C@H]2CC[C@@](C(=O)N[C@@H](CC(=O)O)C(=O)O)(c3ccccc3)c3ccccc32)CC1 [Co. No. 121] | > 1000 | > 10000
CCOC(=O)CCNC(=O)[C@@]1(c2ccccc2)CC[C@H](C(=O)N2CCC(NC(=O)c3ccccc3OC)CC2)c2ccccc21 [Co. No. 129] | 4.36 | 1.77
COC(=O)CCNC(=O)[C@@]1(c2ccccc2)CC[C@H](C(=O)N2CCC(NC(=O)c3cccn(C)c3=O)CC2)c2ccccc21 [Co. No. 138] | > 1000 | 596
COC(=O)[C@H](CCCCNC(=O)OC(C)(C)C)NC(=O)[C@@]1(c2ccccc2)CC[C@H](C(=O)N2CCC(NC(=O)c3cccn(C)c3=O)CC2)c2ccccc21 [Co. No. 148] | > 1000 | 131
CCOC(=O)CCNC(=O)[C@@]1(c2ccccc2)CC[C@H](C(=O)N2CCC(NC(=O)c3cccn(C)c3=O)CC2)c2ccccc21 [Co. No. 159] | > 1000 | 129
Cn1cccc(C(=O)NC2CCN(C(=O)[C@H]3CC[C@@](C(=O)NCCC(=O)OC(C)(C)C)(c4ccccc4)c4ccccc43)CC2)c1=O [Co. No. 164] | > 1000 | 65.2
Cn1cccc(C(=O)NC2CCN(C(=O)[C@H]3CC[C@@](C(=O)N[C@@H](CCCCNC(=O)OC(C)(C)C)C(=O)OC(C)(C)C)(c4ccccc4)c4ccccc43)CC2)c1=O [Co. No. 172] | > 1000 | 33.6
COc1ccccc1C(=O)NC1CCN(C(=O)[C@H]2CC[C@@](C(=O)NCCC(=O)OC(C)C)(c3ccccc3)c3ccccc32)CC1 [Co. No. 199] | 7.36 | 1.32
CCOC(=O)CC(C)NC(=O)[C@@]1(c2ccccc2)CC[C@H](C(=O)N2CCC(NC(=O)c3ccccc3OC)CC2)c2ccccc21 (some centres unmarked) [Co. No. 200] | 255 | 6.79
COC(=O)CCCNC(=O)[C@@]1(c2ccccc2)CC[C@H](C(=O)N2CCC(NC(=O)c3ccccc3OC)CC2)c2ccccc21 [Co. No. 201] | > 1000 | 7.76
CCOC(=O)CCCNC(=O)[C@@]1(c2ccccc2)CC[C@H](C(=O)N2CCC(NC(=O)c3ccccc3OC)CC2)c2ccccc21 [Co. No. 202] | 793 | 3.16
